Assay results taken from patent US20240294543A1, “CYCLOHEPTA-THIENO-DIAZEPINE DERIVATIVES AS GABA A GAMMA1 PAM” (Hoffmann-La Roche Inc., priority 2021, published 2024).
Where two headings read alike, the source gives them in different places.

Tests used:
[1] = target: human GABAA α5β2γ1 receptor (Homo sapiens (Human), UniProt P31644+Q8N1C3); test: Radioligand binding assay, competition for [3H]RO7239181, γ1-containing GABAA subtypes
Protocol: The affinity of compounds at GABAA γ1 subunit-containing receptors was measured by competition for [^3H]RO7239181 (67.3 Ci/mmol; Roche) binding to membranes from HEK293F cells (ThermoFisher R79007) expressing human (transiently transfected) receptors of composition α5β2γ1, α2β2γ1, α1β2γ1. For better protein expression of the α2 subunit-containing receptors, the 28 amino acid long signal peptide (Met1 to Ala28) of the human GABAA α2 subunit was substituted by the 31 amino acid long signal peptide (Met1 to Ser31) of human GABAA α5 subunit.
(§1) Harvested pellets from HEK293F cells expressing the different GABAA receptor subtypes were resuspended in Mannitol Buffer pH 7.2-7.4 (Mannitol 0.29 M, Triethylamine 10 mM, Acetic acid 10 mM, EDTA 1 mM plus protease inhibitors (20 tablets Complete, Roche Diagnostics Cat. No. 05 056 489 001 per liter)), washed two times and then resuspended at 1:10 to 1:15 dilution in the same buffer. Cell disruption was performed by stirring the suspension in a Parr vessel #4637 at 435 psi for 15 minutes, and then the suspensions were centrifuged at 1000×g for 15 minutes at 4° C. (Beckman Avanti J-HC; rotor JS-4.2). The supernatant (S1) was transferred in a 21 Schott flask and the pellet (P1) was resuspended with Mannitol Buffer up to 175 ml. The resuspended pellet was transferred into a 250 ml Corning centrifugal beaker and centrifuged at 1500×g for 10 minutes at 4° C. (Beckman Avanti J-HC; rotor JS-4.2). The supernatant (S1) was then transferred in the 21 Schott flask and the pellet was discarded. The supernatants (S1) were centrifuged in 500 ml Beckman polypropylene centrifugal beaker at 15'000×g for 30 minutes at 4° C. (Beckman Avanti J-20 XP; rotor JLA-10.500). The pellet (P2) was resuspended with Mannitol Buffer 1:1 and frozen at −80° C. The supernatant (S2) was centrifuged in 100 ml Beckman polypropylene centrifugal tubes at 48000×g for 50 minutes at 4° C. (Beckman Avanti J-20 XP; rotor JA-18). The supernatant (S3) was discarded and the pellet (P3) was resuspended with 1:1 Mannitol Buffer. The P2 and P3 protein concentration was determined with the BIORAD Standard assay method with bovine serum albumin as standard and measured on the NANO-Drop 1000. The membrane suspension was aliquots (500 μl per tube) and stored at −80° C. until required.
(§2) Membrane homogenates were resuspended and polytronised (Polytron PT1200E Kinematica AG) in Potassium Phosphate 10 mM, KCl 100 mM binding buffer at pH 7.4 to a final assay concentration determined with a previous experiment.
Radioligand binding assays were carried out in a volume of 200 μL (96-well plates) which contained 100 μL of cell membranes, [^3H]RO7239181 at a concentration of 1.5 nM (α5β2γ1) or 20-30 nM (α1β2γ1, α2β2γ1) and the test compound in the range of [0.3-10000]×10^−9 M. Nonspecific binding was defined by 10×10^−6 (α5β2γ1) and 30×10^−6 M RO7239181 and typically represented less than 5% (α5β2γ1) and less than 20% (α1β2γ1, α2β2γ1) of the total binding. Assays were incubated to equilibrium for 1 hour at 4° C. and then, membranes were filtered onto unifilter (96-well white microplate with bonded GF/C filters preincubated 20-50 minutes in 0.3% Polyethylenimine) with a Filtermate 196 harvester (Packard BioScience) and washed 4 times with cold Potassium Phosphate 10 mM pH 7.4, KCl 100 mM binding buffer. After anhydrousing, filter-retained radioactivity was detected by liquid scintillation counting. Ki values were calculated using Excel-Fit (Microsoft) and are the means of two determinations.

[2] = target: human GABAA α1β2γ1 receptor (Homo sapiens (Human), UniProt P14867+Q8N1C3); test: as above; settings: [3H]RO7239181 20-30 nM, Table 1
Protocol: (§3) The affinity of compounds at GABAA γ1 subunit-containing receptors was measured by competition for [^3H]RO7239181 (67.3 Ci/mmol; Roche) binding to membranes from HEK293F cells (ThermoFisher R79007) expressing human (transiently transfected) receptors of composition α5β2γ1, α2β2γ1, α1β2γ1.
as §1, §2
(§4) Assays were incubated to equilibrium for 1 hour at 4° C. and then, membranes were filtered onto unifilter (96-well white microplate with bonded GF/C filters preincubated 20-50 minutes in 0.3% Polyethylenimine) with a Filtermate 196 harvester (Packard BioScience) and washed 4 times with cold Potassium Phosphate 10 mM pH 7.4, KCl 100 mM binding buffer. After anhydrousing, filter-retained radioactivity was detected by liquid scintillation counting. Ki values were calculated using Excel-Fit (Microsoft) and are the means of two determinations.

[3] = target: human GABAA α2β2γ1 receptor (Homo sapiens (Human), UniProt P47869+Q8N1C3); test: as above; settings: Ki h-GABAA α2β2γ1, membranes of HEK293F cells, [3H]RO7239181 20-30 nM
Protocol: as §3, §1, §2, §4

[4] = target: human GABAA α1β3γ2 receptor (Homo sapiens (Human), UniProt P14867+P18507); test: Radioligand binding assay, competition for [3H]Flumazenil, γ2-containing GABAA subtypes; settings: for γ2/γ1 Selectivity Ratio: Ki α1β3γ2 (nM)/Ki α2β2γ1 (nM); for LogSel: Log[Ki α1β3γ2 (nM)/Ki α2β2γ1 (nM)]
Protocol: The affinity of compounds at GABAA γ2 subunit-containing receptors was measured by competition for [^3H]Flumazenil (81.1 Ci/mmol; Roche) binding to HEK293F cells expressing human (transiently transfected) receptors of composition α1β3γ2.
Harvested pellets from HEK293F cells expressing the different GABAA γ2 receptor subtypes were resuspended in Mannitol Buffer pH 7,2-7,4 and processed as described above for the cells expressing the GABAA γ1 subunit-containing receptors.
Assays were incubated to equilibrium for 1 hour at 4° C. and harvested onto GF/C uni-filters (Packard) by filtration using a Packard harvester and washing with ice-cold wash buffer (50 mM Tris; pH 7.5). After anhydrousing, filter-retained radioactivity was detected by liquid scintillation counting. Ki values were calculated using Excel-Fit (Microsoft) and are the means of two determinations.

[5] = Ki h-GABAA α1β2γ1, membranes of HEK293F cells
[6] = HEK293F cells, [3H]Flumazenil 1 nM, Table 1, read-out: Ki h-GABAA α1β3γ2

SMILES	Ki [1] [nM]	Ki [2, 5] [nM]	Ki ([3]; Table 1) [nM]	Ki ([3]; Table 2) [nM]	Ki [4, 6] [nM]	γ2/γ1 Selectivity Ratio ([4]; Table 1)	LogSel ([4]; Table 1)	Ki [4] [nM]	Ki ([2]; membranes of HEK293F cells, read-out: Ki h-GABAA α1β2γ1) [nM]
C[C@@H]1N=C(c2c(F)cccc2F)c2c(sc3c2COCCO3)-n2cc(C(=O)NCC(C)(C)O)nc21 [Example 59, (7S)-9-(2,6-difluorophenyl)-N-(2-hydroxy-2-methyl-propyl)-7-methyl-13,16-dioxa-18-thia-2,5,8-triazatetracyclo[8.8.0.02,6.011,17]octadeca-1(10),3,5,8,11(17)-pentaene-4-carboxamide]	2.27	21.7	8.9	8.9	1270	142.9	2.16		
Cc1nnc2n1-c1sc3c(c1C(c1c(F)cccc1F)=N[C@H]2C)CCC[C@@H](F)C3 (single isomer, unassigned) [Example 16]	13.6	421	89.8	89.8		15.8	1.20	1420	
[2H]C1([2H])OCc2c(sc3c2C(c2c(F)cccc2F)=N[C@@H](C)c2nc(C(=O)NCC)nn2-3)OC1([2H])[2H] [Example 38, (7S)-14,14,15,15-tetradeuterio-9-(2,6-difluorophenyl)-N-ethyl-7-methyl-13,16-dioxa-18-thia-2,3,5,8-tetrazatetracyclo[8.8.0.02,6.011,17]octadeca-1(10),3,5,8,11(17)-pentaene-4-carboxamide]	3.59		17.9	17.9	4030	224.3	2.35		122
Cc1nnc2n1-c1sc3c(c1C(c1c(F)cccc1F)=NC2)CCOCC3 [Example 5, 9-(2,6-difluorophenyl)-3-methyl-14-oxa-18-thia-2,4,5,8-tetrazatetracyclo[8.8.0.02,6.011,17]octadeca-1(10),3,5,8,11(17)-pentaene]	10.5	246	63.5	63.5		19.8	1.30	1260	
Cc1cn2c(n1)[C@H](C)N=C(c1c(F)cccc1F)c1c-2sc2c1COCCC2 [Example 58, (7S)-9-(2,6-difluorophenyl)-4,7-dimethyl-13-oxa-18-thia-2,5,8-triazatetracyclo[8.8.0.02,6.011,17]octadeca-1(10),3,5,8,11(17)-pentaene]	2.59		25	25		56.0	1.75	1400	
C[C@@H]1N=C(c2c(F)cccc2F)c2c(sc3c2COCCC3)-n2nc(C(=O)NCC(C)(C)O)nc21 [Example 71, (7S)-9-(2,6-difluorophenyl)-N-(2-hydroxy-2-methyl-propyl)-7-methyl-13-oxa-18-thia-2,3,5,8-tetrazatetracyclo[8.8.0.02,6.011,17]octadeca-1(10),3,5,8,11(17)-pentaene-4-carboxamide]	7.3		80	80	3920	49.0	1.69		
C[C@@H]1N=C(c2c(F)cccc2F)c2c(sc3c2COCCC3)-n2nc(C(=O)NC[C@](C)(O)C(F)(F)F)nc21 [Example 69, (7S)-9-(2,6-difluorophenyl)-7-methyl-N-[(2S)-3,3,3-trifluoro-2-hydroxy-2-methyl-propyl]-13-oxa-18-thia-2,3,5,8-tetrazatetracyclo[8.8.0.02,6.011,17]octadeca-1(10),3,5,8,11(17)-pentaene-4-carboxamide]	7.8		62	62	3700	59.7	1.78		
